According to ChEMBL document CHEMBL5370591, “A Potent and Narrow-Spectrum Antibacterial against Clostridioides difficile Infection” (J Med Chem, 2023):
The source made the active and inactive calls.

Key:
Clostridioides difficile [1] = experiment: Antibacterial activity against Clostridium difficile NR49294 assessed as inhibition of bacterial growth by broth microdilution method; format: functional
Bacteroides fragilis = experiment: Antibacterial activity against Bacteroides fragilis HM-709 assessed as inhibition of bacterial growth by broth microdilution method; format: functional
Clostridioides difficile [2] = experiment: Antibacterial activity against Clostridium difficile BAA-1803 assessed as inhibition of bacterial growth by broth microdilution method; format: functional
Clostridioides difficile [3] = experiment: Antibacterial activity against Clostridium difficile NR49318 assessed as inhibition of bacterial growth by broth microdilution method; format: functional
Staphylococcus aureus [4] = experiment: Antibacterial activity against vancomycin-resistant Staphylococcus aureus clinical isolate 1 assessed as inhibition of bacterial growth by broth microdilution method; format: functional
Clostridioides difficile [5] = experiment: Antibacterial activity against Clostridium difficile NR49292 assessed as inhibition of bacterial growth by broth microdilution method; format: functional
Bifidobacterium longum = experiment: Antibacterial activity against Bifidobacterium longum HM-846 assessed as inhibition of bacterial growth by broth microdilution method; format: functional
Clostridioides difficile [6] = experiment: Antibacterial activity against Clostridium difficile ATCC 43255 assessed as damage in cell wall at 8 time MIC incubated for 24 hrs by scanning electron microscopy based analysis; format: functional, organism-based
Fusobacterium nucleatum = experiment: Antibacterial activity against Fusobacterium nucleatum HM-992 assessed as inhibition of bacterial growth by broth microdilution method; format: functional
Clostridioides difficile [7] = experiment: Antibacterial activity against Clostridium difficile ATCC 43255 assessed as as time duration of post-antibiotic effect for suppression of bacterial growth at 4 times MIC incubated for 1 hr in broth solution; format: functional
Staphylococcus aureus [8] = experiment: Antibacterial activity against Staphylococcus aureus NRS119 assessed as inhibition of bacterial growth by broth microdilution method; format: functional
Streptococcus pyogenes = experiment: Antibacterial activity against Streptococcus pyogenes ATCC 49399 assessed as inhibition of bacterial growth by broth microdilution method; format: functional
Streptococcus oralis = experiment: Antibacterial activity against Streptococcus oralis ATCC 9811 assessed as inhibition of bacterial growth by broth microdilution method; format: functional
THP-1 = experiment: Cytotoxicity against human THP-1 cells assessed as increase in LDH release incubate for 24 hrs by trypan-blue staining based analysis; format: functional, cell-based; details: THP-1, 24 h
Staphylococcus aureus [9] = experiment: Antibacterial activity against vancomycin-resistant Staphylococcus aureus clinical isolate 2 assessed as inhibition of bacterial growth by broth microdilution method; format: functional
Enterococcus faecium [10] = experiment: Antibacterial activity against Enterococcus faecium NCTC 7171 assessed as inhibition of bacterial growth by broth microdilution method; format: functional
Lactobacillus gasseri = experiment: Antibacterial activity against Lactobacillus gasseri HM-644 assessed as inhibition of bacterial growth by broth microdilution method; format: functional
Escherichia coli = experiment: Antibacterial activity against Escherichia coli ATCC25922 assessed as inhibition of bacterial growth by broth microdilution method; format: functional
Clostridioides difficile [11] = experiment: Antibacterial activity against Clostridium difficile NR49302 assessed as inhibition of bacterial growth by broth microdilution method; format: functional
Enterococcus faecalis [12] = experiment: Antibacterial activity against Enterococcus faecalis ATCC 29212 assessed as inhibition of bacterial growth by broth microdilution method; format: functional
Eubacterium sp. = experiment: Antibacterial activity against Eubacterium sp. HM-178 assessed as inhibition of bacterial growth by broth microdilution method; format: functional
Clostridioides difficile [13] = experiment: Antibacterial activity against Clostridium difficile ATCC 43255 assessed as inhibition of bacterial growth by broth microdilution method; format: functional
[14] = test system: Staphylococcus haemolyticus; experiment: Antibacterial activity against Staphylococcus haemolyticus ATCC 29970 assessed as inhibition of bacterial growth by broth microdilution method; format: functional
Bacillus licheniformis = experiment: Antibacterial activity against Bacillus licheniformis ATCC 12759 assessed as inhibition of bacterial growth by broth microdilution method; format: functional
Clostridioides difficile [15] = experiment: Antibacterial activity against Clostridium difficile 23828 assessed as inhibition of bacterial growth by broth microdilution method; format: functional
Staphylococcus aureus [16] = experiment: Antibacterial activity against Staphylococcus aureus ATCC 27660 assessed as inhibition of bacterial growth by broth microdilution method; format: functional
Staphylococcus aureus [17] = experiment: Antibacterial activity against Staphylococcus aureus ATCC 29213 assessed as inhibition of bacterial growth by broth microdilution method; format: functional
Enterococcus faecium [18] = experiment: Antibacterial activity against vancomycin susceptible Enterococcus faecium119-39A assessed as inhibition of bacterial growth by broth microdilution method; format: functional; details: 119-39A
Klebsiella aerogenes = experiment: Antibacterial activity against Klebsiella aerogenes ATCC35029 assessed as inhibition of bacterial growth by broth microdilution method; format: functional
Enterococcus faecium [19] = experiment: Antibacterial activity against vancomycin resistant Enterococcus faecium 106 assessed as inhibition of bacterial growth by broth microdilution method; format: functional
Pseudomonas aeruginosa = experiment: Antibacterial activity against Pseudomonas aeruginosa ATCC27853 assessed as inhibition of bacterial growth by broth microdilution method; format: functional
Enterococcus faecalis [20] = experiment: Antibacterial activity against vancomycin resistant Enterococcus faecalis 99 assessed as inhibition of bacterial growth by broth microdilution method; format: functional
Clostridioides difficile [21] = experiment: Antibacterial activity against Clostridium difficile 26675 assessed as inhibition of bacterial growth by broth microdilution method; format: functional
[22] = test system: Limosilactobacillus reuteri; experiment: Antibacterial activity against Lactobacillus reuteri HM-102 assessed as inhibition of bacterial growth by broth microdilution method; format: functional
Acinetobacter baumannii = experiment: Antibacterial activity against Acinetobacter baumannii ATCC17961 assessed as inhibition of bacterial growth by broth microdilution method; format: functional
Enterococcus faecalis [23] = experiment: Antibacterial activity against vancomycin susceptible Enterococcus faecalis 201 assessed as inhibition of bacterial growth by broth microdilution method; format: functional
Veillonella = experiment: Antibacterial activity against Veillonella HM-49 assessed as inhibition of bacterial growth by broth microdilution method; format: functional
Staphylococcus aureus [24] = experiment: Antibacterial activity against Staphylococcus aureus NRS120 assessed as inhibition of bacterial growth by broth microdilution method; format: functional
Clostridioides difficile [25] = experiment: Antibacterial activity against Clostridium difficile NR49310 assessed as inhibition of bacterial growth by broth microdilution method; format: functional
Clostridioides difficile [26] = experiment: Antibacterial activity against Clostridium difficile BAA-1870 assessed as inhibition of bacterial growth by broth microdilution method; format: functional
Bacillus cereus = experiment: Antibacterial activity against Bacillus cereus ATCC 13061 assessed as inhibition of bacterial growth by broth microdilution method; format: functional
Clostridioides difficile [27] = experiment: Antibacterial activity against Clostridium difficile 24531 assessed as inhibition of bacterial growth by broth microdilution method; format: functional
Clostridioides difficile [28] = experiment: Antibacterial activity against Clostridium difficile NR49305 assessed as inhibition of bacterial growth by broth microdilution method; format: functional
Staphylococcus aureus [29] = experiment: Antibacterial activity against Staphylococcus aureus NRS100 assessed as inhibition of bacterial growth by broth microdilution method; format: functional
[30] = test system: Staphylococcus epidermidis; experiment: Antibacterial activity against Staphylococcus epidermidis ATCC 35547 assessed as inhibition of bacterial growth by broth microdilution method; format: functional
Klebsiella pneumoniae = experiment: Antibacterial activity against Klebsiella pneumoniae ATCC700603 assessed as inhibition of bacterial growth by broth microdilution method; format: functional
[31] = Selectivity ratio of IC50 for human THP-1 cells to MIC for Clostridium difficile ATCC 43255; format: toxicity
Corynebacterium sp. = experiment: Antibacterial activity against Corynebacterium sp. HM-784 assessed as inhibition of bacterial growth by broth microdilution method; format: functional

CN[C@H](CC(C)C)C(=O)N[C@H]1C(=O)N[C@@H](CC(N)=O)C(=O)N[C@H]2C(=O)N[C@H]3C(=O)N[C@H](C(=O)N[C@H](C(=O)O)c4cc(O)cc(O)c4-c4cc3ccc4O)[C@H](O)c3ccc(c(Cl)c3)Oc3cc2cc(c3O[C@@H]2O[C@H](CO)[C@@H](O)[C@H](O)[C@H]2O[C@H]2C[C@](C)(N)[C@H](O)[C@H](C)O2)Oc2ccc(cc2Cl)[C@H]1O [VANCOMYCIN]
2 µg/mL: MIC (Clostridioides difficile [2])
64 µg/mL: MIC (Staphylococcus aureus [4])
16 µg/mL: MIC (Bacteroides fragilis)
3 h: Time (Clostridioides difficile [7])
active: Activity (Clostridioides difficile [6])
0.25 µg/mL: MIC (Clostridioides difficile [1]) | MIC (Clostridioides difficile [3]) | MIC (Clostridioides difficile [5]) | MIC (Bifidobacterium longum) | MIC (Fusobacterium nucleatum)

Oc1ccc(-c2nc(-c3ccc(OC4CCCC4)cc3)no2)cc1
1 µg/mL: MIC (Staphylococcus aureus [8]) | MIC (Bifidobacterium longum) | MIC (Staphylococcus aureus [29])
2 µg/mL: MIC (Clostridioides difficile [1]) | MIC (Bacteroides fragilis) | MIC (Staphylococcus aureus [9]) | MIC (Clostridioides difficile [11]) | MIC (Clostridioides difficile [13]) | MIC [14] | MIC (Staphylococcus aureus [16]) | MIC (Staphylococcus aureus [17]) | MIC (Enterococcus faecium [18]) | MIC (Staphylococcus aureus [4]) | MIC (Enterococcus faecium [19]) | MIC (Clostridioides difficile [5]) | MIC (Staphylococcus aureus [24]) | MIC (Clostridioides difficile [26]) | MIC (Bacillus cereus) | MIC (Fusobacterium nucleatum) | MIC (Clostridioides difficile [28]) | MIC [30]
4 µg/mL: MIC (Enterococcus faecium [10]) | MIC (Clostridioides difficile [3]) | MIC (Enterococcus faecalis [12]) | MIC (Eubacterium sp.) | MIC (Bacillus licheniformis) | MIC (Clostridioides difficile [15]) | MIC (Enterococcus faecalis [20]) | MIC (Clostridioides difficile [21]) | MIC (Enterococcus faecalis [23]) | MIC (Clostridioides difficile [25]) | MIC (Clostridioides difficile [27])
18 µg/mL: IC50 (THP-1)
> 128 µg/mL: MIC (Streptococcus pyogenes) | MIC (Streptococcus oralis) | MIC (Lactobacillus gasseri) | MIC (Escherichia coli) | MIC (Klebsiella aerogenes) | MIC (Pseudomonas aeruginosa) | MIC [22] | MIC (Acinetobacter baumannii) | MIC (Veillonella) | MIC (Klebsiella pneumoniae)

FC(F)(F)c1ccc(Oc2ccc(-c3noc(-c4ccc5[nH]ccc5c4)n3)cc2)cc1
2 µg/mL: MIC (Staphylococcus aureus [8]) | MIC (Staphylococcus aureus [9]) | MIC (Clostridioides difficile [2]) | MIC (Enterococcus faecium [10]) | MIC (Clostridioides difficile [3]) | MIC (Clostridioides difficile [11]) | MIC (Eubacterium sp.) | MIC (Clostridioides difficile [13]) | MIC (Staphylococcus aureus [4]) | MIC (Enterococcus faecium [19]) | MIC (Clostridioides difficile [5]) | MIC (Staphylococcus aureus [24]) | MIC (Clostridioides difficile [25]) | MIC (Staphylococcus aureus [29]) | MIC [30] | MIC (Corynebacterium sp.)
0.25 µg/mL: MIC (Bifidobacterium longum)
> 128 µg/mL: MIC (Lactobacillus gasseri) | MIC (Escherichia coli) | MIC (Klebsiella aerogenes) | MIC (Pseudomonas aeruginosa) | MIC [22] | MIC (Acinetobacter baumannii) | MIC (Veillonella) | MIC (Klebsiella pneumoniae)
17: selectivity ratio [31]
1 µg/mL: MIC (Clostridioides difficile [1]) | MIC (Enterococcus faecium [18]) | MIC (Fusobacterium nucleatum)
69 µg/mL: IC50 (THP-1)
4 µg/mL: MIC (Bacteroides fragilis) | MIC (Staphylococcus aureus [16]) | MIC (Staphylococcus aureus [17]) | MIC (Enterococcus faecalis [20]) | MIC (Clostridioides difficile [21]) | MIC (Enterococcus faecalis [23]) | MIC (Clostridioides difficile [26]) | MIC (Clostridioides difficile [27]) | MIC (Clostridioides difficile [28])
8 µg/mL: MIC (Enterococcus faecalis [12]) | MIC [14] | MIC (Bacillus licheniformis)
64 µg/mL: MIC (Streptococcus pyogenes)
16 µg/mL: MIC (Bacillus cereus)
128 µg/mL: MIC (Streptococcus oralis)
